Reference: patent US12071404B2, “Aza (indole)-, benzothiophene-, and benzofuran-3-sulfonamides” (UCB Pharma GmbH, priority 2016, dated 2024)

Assays:
GPR17 [1] = biological target: T1, GPR17 (Homo sapiens, UniProt Q13304); test: cAMP accumulation functional assay (HTRF, Schild analysis); assay type: cell-based; design: host or cells: Flp-In T-REx CHO; details: CHO hGPR17 cells, Schild analysis vs MDL29,951, 5 μM forskolin, read-out: cAMP assay pA2 (converted)
Protocol: Flp-In T-REx CHO cells stably expressing human GPR17 receptor (CHO hGPR17) from Evi Kostenis' lab (Bonn University, Germany) were cultured at 37° C. in a humidified atmosphere of 5% CO2. Cells were grown in DMEM with Nutrient Mixture F-12 supplemented with hygromycin B (500 μg/mL) and blasticidin (30 μg/mL). Expression from the Flp-In locus was induced by treatment with doxycycline (1 μg/mL) for 16-20 h prior assays.
GPR17 activation can also recruit Gi-type G-protein signaling, resulting in a decrease of intracellular cyclic adenosine monophosphate (cAMP). Intracellular cAMP changes can be measured using the HTRF cAMP dynamic assay kit from CisBio (Codolet, France). Using homogenous time-resolved fluorescence technology (HTRF), the assay is based on competition between native cAMP produced by cells and cAMP labelled with the dye d2. The tracer binding was determined by an anti-cAMP antibody labeled with cryptate.
CHO hGPR17 were detached with PBS containing EDTA and dispatched in black 384-well plates with 5,000 cells per well. Cells were first incubated for 30 minutes at room temperature in HBSS Hepes (pH 7.4) containing vehicle or varying concentrations of test GPR17 antagonist/inverse agonist compounds. […] After 60 minutes incubation at room temperature, the reaction is terminated and the cells lysed by adding the d2 detection reagent and the cryptate reagent in 10 μL lysis buffer each according to manufacturer's instructions. After 60 minutes incubation, changes in cAMP concentrations are measured according to manufacturer's instructions using an Envision plate reader with laser excitation. All incubations were performed in duplicate. Data was analyzed using GraphPad Prism software using the 4-parameter logistic equation to measure MDL29,951 pEC50s in absence and presence of GPR17 antagonist/inverse agonist test compounds. Dose ratio (DR) were plotted against antagonist concentrations and Schild analysis provided estimated affinity pA2 of GPR17 antagonist/inverse agonist test compounds.
The activities of the Example compounds tested are depicted in the table below. The activity ranges A, B and C refer to pA2 values in the cAMP assay as follows: “A”: pA2<7.5, “B”: pA2 7.5<x≤8.5, “C”: pA2>8.5.

GPR17 [2] = biological target: T1, GPR17; test: Calcium mobilization functional assay (GPR17 Ca2+ assay); assay type: cell-based; design: host or cells: Flp-In T-REx CHO; details: CHO hGPR17 cells, inhibition of 50 nM MDL29,951, Calcium 5 dye, FLIPR; read-out: Ca2+ assay pIC50 (converted)
How it was run: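 pIC50 values were fitted with a 4-parameter logistic curve. They reflect test-compound inhibition of cytosolic Ca2+ release evoked by 50 nM MDL29,951, tracked as Calcium 5 fluorescence at room temperature. Cells were CHO Flp-In T-REx stably carrying human GPR17, induced with doxycycline 1 μg/mL for 16-20 h.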

T1 sequence (Q13304 whole entry): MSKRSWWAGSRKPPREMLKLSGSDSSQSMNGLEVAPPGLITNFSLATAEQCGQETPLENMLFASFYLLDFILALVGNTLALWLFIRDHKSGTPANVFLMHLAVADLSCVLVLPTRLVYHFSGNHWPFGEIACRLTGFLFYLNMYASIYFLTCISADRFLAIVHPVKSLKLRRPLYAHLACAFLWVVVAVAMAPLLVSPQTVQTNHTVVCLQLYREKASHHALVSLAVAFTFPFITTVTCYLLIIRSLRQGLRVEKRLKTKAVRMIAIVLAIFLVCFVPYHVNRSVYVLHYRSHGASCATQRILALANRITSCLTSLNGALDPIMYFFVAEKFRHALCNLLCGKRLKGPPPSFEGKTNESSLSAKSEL

SMILES	Kb (GPR17 [1]) [nM]	IC50 (GPR17 [2]) [nM]
Cc1cc(F)c(NS(=O)(=O)c2c[nH]c3c(F)c(Cl)ccc23)nc1F [Compound I-355, 6-chloro-N-(3,6-difluoro-5-methylpyridin-2-yl)-7-fluoro-1H-indole-3-sulfonamide]	3.16 to 31.6	< 3.16
O=C1NCc2cc(F)c(NS(=O)(=O)c3c[nH]c4cc(Cl)ccc34)cc21 [Compound I-265, 6-chloro-N-(6-fluoro-3-oxo-2,3-dihydro-1H-isoindol-5-yl)-1H-indole-3-sulfonamide]	> 31.6	3.16 to 31.6
O=S(=O)(Nc1cccc2nsnc12)c1c[nH]c2cc(Cl)ccc12 [Compound I-109, N-(2,1,3-benzothiadiazol-4-yl)-6-chloro-1H-indole-3-sulfonamide]	3.16 to 31.6	< 3.16
COc1nc(NS(=O)(=O)c2c[nH]c3c(Br)c(Cl)ccc23)c(F)cc1Cl [Compound I-321, 7-bromo-6-chloro-N-(5-chloro-3-fluoro-6-methoxypyridin-2-yl)-1H-indole-3-sulfonamide]	< 3.16	< 3.16
COc1ccc2c(S(=O)(=O)Nc3cc(F)c(Br)cc3F)c[nH]c2c1 [Compound I-285, N-(4-bromo-2,5-difluorophenyl)-6-methoxy-1H-indole-3-sulfonamide]	< 3.16	< 3.16
COc1nc(NS(=O)(=O)c2c[nH]c3c(OC(F)F)c(Cl)ccc23)c(F)cc1F [Compound I-366, 6-chloro-7-(difluoromethoxy)-N-(3,5-difluoro-6-methoxypyridin-2-yl)-1H-indole-3-sulfonamide]	3.16 to 31.6	3.16 to 31.6
CCc1cc(F)c(NS(=O)(=O)c2c[nH]c3cc(Cl)ccc23)nc1F [Compound I-338, 6-chloro-N-(5-ethyl-3,6-difluoropyridin-2-yl)-1H-indole-3-sulfonamide]	< 3.16	< 3.16
O=S(=O)(Nc1cc2nsnc2cc1F)c1c[nH]c2c1ccc1ccccc12 [Compound I-160, N-(6-fluoro-2,1,3-benzothiadiazol-5-yl)-1H-benzo[g]indole-3-sulfonamide]	3.16 to 31.6	< 3.16
Cc1noc(C)c1-c1c(Cl)ccc2c(S(=O)(=O)Nc3cc(F)c(Cl)cc3F)c[nH]c12 [Compound I-250, 6-chloro-N-(4-chloro-2,5-difluorophenyl)-7-(3,5-dimethyl-1,2-oxazol-4-yl)-1H-indole-3-sulfonamide]	3.16 to 31.6	3.16 to 31.6

More lines, now with the values ahead:

Kb (GPR17 [1]) [nM]	IC50 (GPR17 [2]) [nM]	SMILES
3.16 to 31.6	3.16 to 31.6	O=S(=O)(Nc1cc2c(cc1F)OC(F)(F)O2)c1c[nH]c2cc(Cl)ccc12 [Compound I-125, 6-chloro-N-(2,2,6-trifluoro-1,3-benzodioxol-5-yl)-1H-indole-3-sulfonamide]
< 3.16	< 3.16	COc1cc(CC#N)cnc1NS(=O)(=O)c1c[nH]c2cc(Cl)ccc12 [Compound I-194, 6-chloro-N-[5-(cyanomethyl)-3-methoxypyridin-2-yl]-1H-indole-3-sulfonamide]
3.16 to 31.6	3.16 to 31.6	CS(=O)(=O)c1ccc2c(S(=O)(=O)Nc3ccc(I)cc3F)c[nH]c2c1 [Compound I-48, N-(2-fluoro-4-iodophenyl)-6-(methylsulfonyl)-1H-indole-3-sulfonamide]
< 3.16	< 3.16	COc1cc(C#N)c(F)cc1NS(=O)(=O)c1c[nH]c2c1ccc1ccccc12 [Compound I-289, N-(4-cyano-5-fluoro-2-methoxyphenyl)-1H-benzo[g]indole-3-sulfonamide]
< 3.16	< 3.16	O=S(=O)(Nc1cc(F)c(OCC(F)F)cc1F)c1c[nH]c2cc(Cl)ccc12 [Compound I-246, 6-chloro-N-[4-(2,2-difluoroethoxy)-2,5-difluorophenyl]-1H-indole-3-sulfonamide]
< 3.16	3.16 to 31.6	N#Cc1ccc(NS(=O)(=O)c2c[nH]c3c4c(ccc23)CCC4)c(F)c1 [Compound I-150, N-(4-cyano-2-fluorophenyl)-1,6,7,8-tetrahydrocyclopenta[g]indole-3-sulfonamide]
